The supplement of paper PMC13380429

What was measured:
Settings in all cases: 72 h
Calu-3 [1] = test: relative viability EC50 (midpoint between 100% and the lowest measured viability); higher = less toxic
Vero E6 [2] = test: as above
Calu-3 [3] = test: cell viability relative to DMSO; higher = less toxic
HepG2 [4] = test: as above
U2OS [5] = test: as above
Vero E6 [6] = test: as above
Caco-2 [7] = test: as above
Calu-3 [8] = test: drug sensitivity score (DSS) for viability; higher = more toxic; extreme values may be limits of the assay
HepG2 [9] = test: as above
U2OS [10] = test: as above
Vero E6 [11] = test: as above
Caco-2 [12] = test: as above
HepG2 [13] = test: relative viability EC50 (midpoint between 100% and the lowest measured viability); higher = less toxic
Caco-2 [14] = test: as above

SMILES	relative viability EC50 (Calu-3 [1])	relative viability EC50 (Vero E6 [2])	cell viability (Calu-3 [3]; 1 nM)	cell viability (Calu-3 [3]; 10 nM)	cell viability (Calu-3 [3]; 100 nM)	cell viability (Calu-3 [3]; 1000 nM)	cell viability (Calu-3 [3]; 10000 nM)	cell viability (HepG2 [4]; 1 nM)	cell viability (HepG2 [4]; 10 nM)	cell viability (HepG2 [4]; 100 nM)	cell viability (HepG2 [4]; 1000 nM)	cell viability (HepG2 [4]; 10000 nM)	cell viability (U2OS [5]; 1 nM)	cell viability (U2OS [5]; 10 nM)	cell viability (U2OS [5]; 100 nM)	cell viability (U2OS [5]; 1000 nM)	cell viability (U2OS [5]; 10000 nM)	cell viability (Vero E6 [6]; 1 nM)	cell viability (Vero E6 [6]; 10 nM)	cell viability (Vero E6 [6]; 100 nM)	cell viability (Vero E6 [6]; 1000 nM)	cell viability (Vero E6 [6]; 10000 nM)	cell viability (Caco-2 [7]; 1 nM)	cell viability (Caco-2 [7]; 10 nM)	cell viability (Caco-2 [7]; 100 nM)	cell viability (Caco-2 [7]; 1000 nM)	cell viability (Caco-2 [7]; 10000 nM)	drug sensitivity score (Calu-3 [8])	drug sensitivity score (HepG2 [9])	drug sensitivity score (U2OS [10])	drug sensitivity score (Vero E6 [11])	drug sensitivity score (Caco-2 [12])	relative viability EC50 (HepG2 [13])	relative viability EC50 (Caco-2 [14])
C=CC(=O)Nc1ccc2ncnc(Nc3cccc(Br)c3)c2c1	0.0229 µM	0.287 µM	96%	79.1%	46.5%	32.9%	35.4%	100%	98.7%	95.2%	93.6%	65%	96.8%	107%	93%	87.9%	62.8%	96.8%	89.6%	71%	50.7%	19.7%	83.2%	86.7%	92%	71%	70.6%	21	2.7	3	13.6	6.7		
CCCCC/N=c1\ccn(Cc2ccccc2)c2ccccc12		> 10 µM	97%	98.2%	96.1%	104%	65.5%	96.3%	99.3%	96%	94.3%	33.9%	101%	94.4%	100%	97.5%	64.3%	94.9%	100%	90.6%	99.2%	94.2%	93.3%	94.9%	103%	98.5%	63%	1.4	4.5	2.1	0	2	2.46 µM	
CCOC(=O)c1ncc2[nH]c3ccc(OCc4ccccc4)cc3c2c1COC		> 10 µM	110%	89.2%	96.6%	104%	70.9%	102%	105%	101%	69.5%	14.1%	96%	94.9%	99%	90.9%	64.7%	91.9%	97.3%	87.9%	93.5%	85%	99.8%	97%	90.6%	79.1%	63.7%	1	9	3.1	0.3	4.3	1.27 µM	
N#Cc1ccc(Cn2cncc2CN2CCN(c3cccc(Cl)c3)C(=O)C2)cc1		> 10 µM	104%	88.2%	87.1%	96.4%	67.5%	108%	100%	107%	93.3%	49.9%	96.1%	104%	98.4%	99.2%	68.7%	107%	102%	95.4%	99.9%	85.5%	102%	106%	107%	97.2%	87%	2.1	3.8	1.5	0.2	0.3	2.09 µM	> 10 µM
O=C(Nc1ccc(S(=O)(=O)Nc2nccs2)cc1)C(c1ccccc1)c1ccccc1								104%	105%	103%	110%	95.3%											105%	101%	113%	99%	103%		0			0	> 10 µM	> 10 µM
O=C(O)Cc1cc2ccccc2nc1C(=O)O [CCMQ]								107%	110%	95.6%	109%	96.9%											106%	111%	103%	98.2%	98.4%		0			0	> 10 µM	> 10 µM
N[C@@H](CS)C(=O)O [L-cysteine]																												0	0.2	0	0			
Cn1cnc(-c2cc3nccc(Oc4ccc(NC(=S)NC(=O)Cc5ccccc5)cc4F)c3s2)c1 [MGCD-265]		> 10 µM	96.6%	93.1%	100%	86.9%	62.3%	103%	92.7%	97.6%	97.9%	80.6%	102%	95.9%	103%	96.5%	67.3%	106%	106%	103%	104%	77.3%	97%	99.8%	98.3%	84%	63.6%	3.7	0.8	2	0.6	3.5	> 10 µM	
Oc1cccc(-c2nc(N3CCOCC3)c3oc4ncccc4c3n2)c1 [PI-103]			105%	95.1%	81.9%	84.1%	53.6%	98.8%	104%	99.7%	70.9%	62%	103%	100%	97%	69.4%	76.6%	98.3%	96.2%	87.9%	50.5%	53%	100%	96.9%	81.2%	42.4%	49.9%	5.1	5.3	5.6	11	13.1		0.14 µM
COCCOCCOc1ccc(C2=N[C@@](C)(C(=O)O)CS2)c(O)c1 [SP-420]	> 10 µM	> 10 µM	95.1%	102%	103%	95.5%	91.4%	99.8%	94.7%	93%	102%	70.6%	103%	99.5%	108%	98.5%	65.4%	95%	98.5%	98.3%	105%	100%	91.5%	92.1%	94.1%	96%	54%	0	1.1	1.8	0	3		
CCC(=O)O[C@H]1CC[C@H]2[C@@H]3CCC4=CC(=O)CC[C@]4(C)[C@H]3CC[C@]12C [TESTOSTERONE PROPIONATE]																													0	0	0			
COc1cc(N)cn[n+]1-c1ccccc1 [amezinium]	> 10 µM		97.8%	110%	106%	89.9%	96.6%																109%	108%	100%	110%	97.8%	0				0		> 10 µM
CC(C)(S)C(=O)N[C@@H](CS)C(=O)O [bucillamine]																												0	0		0			
Cn1c(=O)c2c(ncn2CC2OCCO2)n(C)c1=O [doxofylline]																												0	1.3	0	0			
NCCNC(=O)c1ccc(Cl)cn1 [lazabemide]		> 10 µM						99.6%	96.4%	113%	114%	125%						95.6%	99.2%	90.8%	91%	104%	98.1%	95.6%	101%	103%	101%		0		0	0	> 10 µM	> 10 µM
C#C[C@]1(OC(=O)CCCCCC)CC[C@H]2[C@@H]3CCC4=CC(=O)CC[C@@H]4[C@H]3CC[C@@]21C [norethisterone-enanthate]		> 10 µM	100%	104%	90%	94.1%	57.1%	95.9%	95.7%	96.9%	88.8%	19.2%	98.5%	100%	100%	98.8%	68.1%	96.6%	97.1%	98.8%	94.5%	84.2%	99.9%	102%	99.8%	95.8%	58.5%	3.2	6.4	1.6	0.6	2.8	2.06 µM	
CCCN1CC(NS(=O)(=O)N(CC)CC)CC2Cc3c(O)cccc3CC21 (stereo not drawn) [quinagolide]	> 10 µM		85.9%	110%	95.8%	97.5%	86.1%																107%	104%	106%	98.9%	96.3%	0.3				0		> 10 µM
CC(=O)NS(=O)(=O)c1ccc(N)cc1 [sulfacetamide]																												0	0		0			
C=CCN1CCc2nc(N)sc2CC1 [talipexole]		> 10 µM																103%	107%	98.1%	100%	100%	102%	104%	99.2%	106%	102%				0	0		> 10 µM
O=C(O)CCCC[C@@H]1CCSS1 [thioctic-acid]		> 10 µM						114%	97.9%	111%	106%	120%						101%	108%	104%	86.5%	90.2%							0		0.8		> 10 µM	
